*1 amine or outer side, *2 acyl side, *3 side chain or, on linkers, in order; H or OH if unused. Where a SMILES comes first, the peptide text is derived from it. Bridges are numbered along the chain shown (N, C = ends). [ ]: non-standard residue; d: D form. Adipoyl = O=C(CCCCC(=O)[*:2])[*:1]; hArg = N=C(N)NCCCC[C@H](N)C(=O)O; Nle = CCCC[C@H](N)C(=O)O; Aib = CC(C)(N)C(=O)O
Assays:
[1] = molecular target: T1, Parathyroid hormone/parathyroid hormone-related peptide receptor (Homo sapiens, UniProt Q03431); experiment: Agonist activity at recombinant PTHR1 expressed in HEK293 cells co-transfected with CRE-Luc assessed as increase of adenylyl cyclase activity after 4.5 hrs by luciferase assay; assay type: functional, cell-based
T1 sequence (Q03431 whole entry): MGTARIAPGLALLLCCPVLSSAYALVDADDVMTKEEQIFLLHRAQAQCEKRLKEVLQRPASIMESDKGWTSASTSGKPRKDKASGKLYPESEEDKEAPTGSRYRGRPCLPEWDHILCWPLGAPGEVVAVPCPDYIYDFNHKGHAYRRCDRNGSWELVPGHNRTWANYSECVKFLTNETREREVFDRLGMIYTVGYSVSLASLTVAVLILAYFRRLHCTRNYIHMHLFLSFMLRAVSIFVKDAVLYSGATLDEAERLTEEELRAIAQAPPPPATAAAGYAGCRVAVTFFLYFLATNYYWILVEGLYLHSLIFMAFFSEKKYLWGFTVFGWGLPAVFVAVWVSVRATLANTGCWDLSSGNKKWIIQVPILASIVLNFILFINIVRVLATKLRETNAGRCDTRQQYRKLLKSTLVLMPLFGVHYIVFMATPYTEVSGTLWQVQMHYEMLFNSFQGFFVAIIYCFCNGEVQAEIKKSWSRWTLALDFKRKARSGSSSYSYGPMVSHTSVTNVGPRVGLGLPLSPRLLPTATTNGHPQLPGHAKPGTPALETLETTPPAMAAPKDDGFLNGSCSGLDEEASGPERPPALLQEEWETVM

[2] = molecular target: T2, Parathyroid hormone/parathyroid hormone-related peptide receptor (Homo sapiens) (UniProt Q03431); experiment: Agonist activity at recombinant PTHR1 expressed in HEK293 cells co-transfected with CRE-Luc assessed as maximal increase of adenylyl cyclase activity after 4.5 hrs by luciferase assay relative to control; assay type: functional, cell-based
T2 sequence (whole entry): T1 sequence (Q03431 whole entry)

| SMILES | EC50 [1] [nM] | Activity [2] [%] |
| --- | --- | --- |
| CCCC[C@@H]1NC(=O)[C@H](CC(C)C)NC(=O)[C@@H](NC(=O)[C@@H](NC(=O)[C@H](CCC(=O)O)NC(=O)C(C)(C)NC(=O)[C@@H](NC(=O)C(C)(C)N)C(C)C)[C@@H](C)CC)CCCCNC(=O)CC[C@@H](C(=O)N[C@@H](CCCCN=C(N)N)C(N)=O)NC(=O)[C@H](Cc2cnc[nH]2)NC1=O (H-[Aib]V[Aib]EIKL[Nle]HE[hArg]-NH2; lactam 6-10) | 1120 | – |
| CCCC[C@@H]1NC(=O)[C@H](CC(C)C)NC(=O)[C@@H](NC(=O)[C@@H](NC(=O)[C@H](CCC(=O)O)NC(=O)C(C)(C)NC(=O)[C@@H](NC(=O)C(C)(C)N)C(C)C)[C@@H](C)CC)CCCCNC(=O)CC[C@@H](C(=O)N[C@@H](CCCCNC(=N)N)C(N)=O)NC(=O)[C@H](Cc2cnc[nH]2)NC1=O (H-[Aib]V[Aib]EIKL[Nle]HE[hArg]-NH2; lactam 6-10) | – | 98 |
| CCCC[C@H](NC(=O)[C@H](CC(C)C)NC(=O)[C@H](CCC(N)=O)NC(=O)[C@@H](NC(=O)[C@H](CCC(=O)O)NC(=O)C(C)(C)NC(=O)[C@@H](NC(=O)C(C)(C)N)C(C)C)[C@@H](C)CC)C(=O)N[C@@H](Cc1cnc[nH]1)C(=O)N[C@@H](CCC(N)=O)C(=O)N[C@@H](CCCCN=C(N)N)C(N)=O (H-[Aib]V[Aib]EIQL[Nle]HQ[hArg]-NH2) | 2.4 | – |
| CCCC[C@H](NC(=O)[C@H](CC(C)C)NC(=O)[C@H](CCC(N)=O)NC(=O)[C@@H](NC(=O)[C@H](CCC(=O)O)NC(=O)C(C)(C)NC(=O)[C@@H](NC(=O)C(C)(C)N)C(C)C)[C@@H](C)CC)C(=O)N[C@@H](Cc1cnc[nH]1)C(=O)N[C@@H](CCC(N)=O)C(=O)N[C@@H](CCCCNC(=N)N)C(N)=O (H-[Aib]V[Aib]EIQL[Nle]HQ[hArg]-NH2) | – | 90 |

Next, values leading:

| EC50 [1] [nM] | Activity [2] [%] | SMILES |
| --- | --- | --- |
| 0.2 | – | CCCC[C@@H]1NC(=O)[C@H](CC(C)C)NC(=O)[C@@H](NC(=O)[C@@H](NC(=O)[C@H](CCC(=O)O)NC(=O)C(C)(C)NC(=O)[C@@H](NC(=O)C(C)(C)N)C(C)C)[C@@H](C)CC)COC(=O)CCCCC(=O)OC[C@@H](C(=O)N[C@@H](CCCCN=C(N)N)C(N)=O)NC(=O)[C@H](Cc2cnc[nH]2)NC1=O (H-[Aib]V[Aib]EISL[Nle]HS[hArg]-NH2; linker 6-10 via Adipoyl) |
| – | 159 | CCCC[C@@H]1NC(=O)[C@H](CC(C)C)NC(=O)[C@@H](NC(=O)[C@@H](NC(=O)[C@H](CCC(=O)O)NC(=O)C(C)(C)NC(=O)[C@@H](NC(=O)C(C)(C)N)C(C)C)[C@@H](C)CC)COC(=O)CCCCC(=O)OC[C@@H](C(=O)N[C@@H](CCCCNC(=N)N)C(N)=O)NC(=O)[C@H](Cc2cnc[nH]2)NC1=O (H-[Aib]V[Aib]EISL[Nle]HS[hArg]-NH2; linker 6-10 via Adipoyl) |

Source: ChEMBL document CHEMBL1275398, “Side chain cyclization based on serine residues: synthesis, structure, and activity of a novel cyclic analogue of the parathyroid hormone fragment 1-11” (J Med Chem, 2010)
